This note sets out measurements from patent US9980943B2, “Methods of treating muscular dystrophy” (BOARD OF REGENTS OF THE NEVADA SYSTEM OF HIGHER EDUCATION, …, priority 2013, dated 2018).

This assay has as its system α7 integrin (LacZ reporter in α7LacZ+/− myoblasts). As to the kind of experiment: qHTS of the LOPAC library and MLSMR (online screen, α7LacZ+/− myoblasts). The settings on record: for activation at 0.307 µM / activation at 1.53 µM / activation at 7.66 µM / activation at 38.3 µM / Emax / EC50: Mus musculus, Myoblast; for activation at 0.307 µM: read-out: Activity at 0.307 uM [%] **; for activation at 1.53 µM: read-out: Activity at 1.530 uM [%] **; for activation at 7.66 µM: read-out: Activity at 7.660 uM [%] **; for activation at 38.3 µM: read-out: Activity at 38.30uM [%] **; for EC50: read-out: Fit LogAC50 (converted).

Where [1] appears, read: 48 h, read-out: Fit Infinite Activity [%].

The structures appear in SMILES notation. Read-outs that look alike come from different tables or passages of the source.

Turning to `Cc1ccc(C2=C(CC(=O)O)C(=O)CC2)cc1` [Compound 86], the EC50 is 4.47 µM. Besides, for the setting “48 h”, the activation at 0.307 µM is 10.4%, the activation at 1.53 µM amounted to 28.9%, the activation at 7.66 µM came out at 57.4% and the activation at 38.3 µM came out at 80.4%. For the same compound, under setting [1], the Emax is 94.7%. In addition, the Emax (read-out: Max Response [%]) worked out at 80.4%.

For the compound `CC1CCCCN1c1ncnc(N)c1[N+](=O)[O-]` (stereo not drawn) [Compound 52], the EC50 was 4.47 µM. Further, for the setting “48 h”, the activation at 0.307 µM is -25.7%, the activation at 1.53 µM was 1.73%, the activation at 7.66 µM was 86.4% and the activation at 38.3 µM turned out to be 130%. The Emax under setting [1] turned out to be 138%.

In the case of `N=C(NOC(=O)COc1cc(Cl)c(Cl)cc1Cl)c1ccncc1` [Compound 125], for the setting “48 h”, the activation at 0.307 µM is 0%, the activation at 1.53 µM was 9.26%, the activation at 7.66 µM is 50.4% and the activation at 38.3 µM worked out at 108%. For the same compound, the Emax under setting [1] amounted to 134%. For the same compound, the Emax (read-out: Max Response [%]) is 108%.

As for `CC1CCCCC12NC(=O)N(CC(=O)OCc1cccc(F)c1)C2=O` (stereo not drawn) [Compound 67], the EC50 is 10 µM. Besides, under “48 h”, the activation at 0.307 µM was determined as 6.4%, the activation at 1.53 µM is 14.5%, the activation at 7.66 µM was 69.8% and the activation at 38.3 µM came out at 142%. For the same compound, the Emax under setting [1] was 162%. Besides, for the setting “read-out: Max Response [%]”, the Emax is 142%.

On to `CC(C(=O)Nc1ccc(C#N)cc1)N(C)CC(=O)Nc1cccc(F)c1` (stereo not drawn) [Compound 186], for which, where the note is “48 h”, the activation at 0.307 µM was -37.2%, the activation at 1.53 µM was -17.7%, the activation at 7.66 µM turned out to be 15.1% and the activation at 38.3 µM was 37.2%. Also, the Emax under setting [1] was determined as 48%. Also, the Emax (read-out: Max Response [%]) was found to be 37.2%.

Consider `CCCCS(=O)(=O)N1CCCC(C(=O)NCCc2ccccc2)C1` (stereo not drawn) [Compound 111], for which the EC50 was 7.08 µM. Also, where the note is “48 h”, the activation at 0.307 µM came out at 4.12%, the activation at 1.53 µM was 15.4%, the activation at 7.66 µM worked out at 54.6% and the activation at 38.3 µM was found to be 89.9%. For the same compound, the Emax under setting [1] was found to be 101%. For the same compound, the Emax (read-out: Max Response [%]) is 89.9%.

For the compound `O=[N+]([O-])c1cccc(S(=O)(=O)N2CCN(S(=O)(=O)N3CCOCC3)CC2)c1` [Compound 158], the EC50 is 10 µM. Besides, under “48 h”, the activation at 0.307 µM stood at 0.67%, the activation at 1.53 µM was 0.634%, the activation at 7.66 µM was determined as 26.3% and the activation at 38.3 µM is 65.9%. In addition, the Emax under setting [1] came to 70.7%. For the same compound, under “read-out: Max Response [%]”, the Emax amounted to 65.9%.

Take `Cc1c(C(=O)O)cccc1-n1c(C)cc(/C=N/Nc2ccc([N+](=O)[O-])cn2)c1C` [Compound 9]: the Score came out at 85 and the EC50 was 2.82 µM. Moreover, for the setting “48 h”, the activation at 0.307 µM is -24.5%, the activation at 1.53 µM is 6.29%, the activation at 7.66 µM was found to be 68.1% and the activation at 38.3 µM was 88.7%. Also, the Emax under setting [1] is 92.2%. Moreover, the Emax (read-out: Max Response [%]) was 88.7%.

Turning to `COc1cc(C(C(=O)NC2CCCCC2)N(C(=O)c2snc(C(N)=O)c2N)c2ccc(C)cc2)ccc1O` (stereo not drawn) [Compound 71], the EC50 was 7.94 µM. In addition, where the note is “48 h”, the activation at 0.307 µM came to 0%, the activation at 1.53 µM turned out to be 9.63%, the activation at 7.66 µM came to 58.8% and the activation at 38.3 µM amounted to 109%. Further, under setting [1], the Emax was found to be 122%. For the same compound, where the note is “read-out: Max Response [%]”, the Emax amounted to 109%.

In the case of `COC(=O)C(=O)C/C(=N/Nc1ncnc2ccccc12)c1ccc(Cl)cc1` [Compound 18], the EC50 is 10 µM. In addition, for the setting “48 h”, the activation at 0.307 µM stood at 7.75%, the activation at 1.53 µM was 30.6% and the activation at 7.66 µM worked out at 358%.

Consider `COc1cccc(NC(=O)c2ccc3c(c2)CCCC3)c1` [Compound 162], for which, for the setting “48 h”, the activation at 0.307 µM was -31.8%, the activation at 1.53 µM was -27.5%, the activation at 7.66 µM amounted to 26.3% and the activation at 38.3 µM is 54.3%. Besides, the Emax under setting [1] amounted to 55.3%. In addition, where the note is “read-out: Max Response [%]”, the Emax came out at 54.3%.

Take `Cc1cc(C)nc(NC(=O)c2ccc(Cl)cc2Cl)n1` [Compound 198]: the EC50 is 10 µM. Further, under “48 h”, the activation at 0.307 µM amounted to 2.39%, the activation at 1.53 µM was 0%, the activation at 7.66 µM was found to be 17.6% and the activation at 38.3 µM worked out at 79.1%. Also, the Emax under setting [1] was 79.2%. For the same compound, under “read-out: Max Response [%]”, the Emax came to 79.1%.

In the case of `C/N=c1\scc(-c2ccc(OC)cc2)n1/N=C(\C)c1cccnc1` [Compound 118], the EC50 was 5.01 µM. Where the note is “48 h”, the activation at 0.307 µM was -8.12%, the activation at 1.53 µM came out at 2.29%, the activation at 7.66 µM stood at 48.7% and the activation at 38.3 µM is 73.6%. For the same compound, the Emax under setting [1] amounted to 74.9%. The Emax (read-out: Max Response [%]) is 73.6%.

Turning to `CC(C)N(CCO)C(=O)CCc1nnc(CCCc2ccccc2)o1` [Compound 199], for the setting “48 h”, the activation at 0.307 µM worked out at 0%, the activation at 1.53 µM was found to be 7.61%, the activation at 7.66 µM amounted to 32.2% and the activation at 38.3 µM amounted to 78.1%. The Emax under setting [1] worked out at 96.2%. In addition, the Emax (read-out: Max Response [%]) was found to be 78.1%.

For the compound `COC(=O)C1=NNC2(C)C(=O)N(c3ccc(C)cc3)C(=O)C12` (stereo not drawn) [Compound 177], the EC50 was 10 µM. Besides, where the note is “48 h”, the activation at 0.307 µM was found to be 1.31%, the activation at 1.53 µM turned out to be 0.295%, the activation at 7.66 µM stood at 16.2% and the activation at 38.3 µM is 71.1%. Further, under setting [1], the Emax is 71.5%. The Emax (read-out: Max Response [%]) is 71.1%.

Regarding `CCc1c(C2(O)CCCCC2)[nH]c2ncccc12` [Compound 135], the EC50 was 10 µM. Further, where the note is “48 h”, the activation at 0.307 µM was -28.5%, the activation at 1.53 µM is -29.4%, the activation at 7.66 µM was -11.2% and the activation at 38.3 µM was determined as 62%. Further, under setting [1], the Emax came to 61.8%. Further, the Emax (read-out: Max Response [%]) is 62%.

Consider `O=C(COC(=O)Cn1cnc2ccccc21)Nc1cccc([N+](=O)[O-])c1` [Compound 119], for which the EC50 was 11.2 µM. Where the note is “48 h”, the activation at 0.307 µM is -17.1%, the activation at 1.53 µM is -14.7%, the activation at 7.66 µM stood at 0.628% and the activation at 38.3 µM worked out at 112%. Further, the Emax under setting [1] stood at 112%. For the same compound, the Emax (read-out: Max Response [%]) came out at 112%.

Turning to `CCC(CC)C(=O)Nc1c(C(=O)N2CCN(c3ccccc3)CC2)oc2ccccc12` [Compound 73], the EC50 is 12.6 µM. Under “48 h”, the activation at 0.307 µM is 13.5%, the activation at 1.53 µM worked out at 18.6%, the activation at 7.66 µM is 35.7% and the activation at 38.3 µM is 185%. Also, the Emax under setting [1] was 187%. For the same compound, where the note is “read-out: Max Response [%]”, the Emax was 185%.

Take `COC(=O)c1ccccc1NC(=O)c1cc[n+]([O-])cc1` [Compound 100]: the EC50 is 3.98 µM. Where the note is “48 h”, the activation at 0.307 µM is -24.5%, the activation at 1.53 µM is -4.99%, the activation at 7.66 µM came out at 30.1% and the activation at 38.3 µM stood at 56.3%. For the same compound, the Emax under setting [1] stood at 64%. Besides, the Emax (read-out: Max Response [%]) was 56.3%.

For the compound `COc1ccc(CCNC(=O)Cn2nnc(C(=O)Nc3ccc(Br)cc3)c2N)cc1OC` [Compound 148], for the setting “48 h”, the activation at 0.307 µM was -30%, the activation at 1.53 µM was -26.8%, the activation at 7.66 µM was found to be 12.5% and the activation at 38.3 µM is 102%. Besides, under setting [1], the Emax was determined as 110%. Also, the Emax (read-out: Max Response [%]) was 102%.

For the compound `CNc1nnc(SCC(=O)c2cc(C)n(C3CC3)c2C)s1` [Compound 68], the EC50 was 12.6 µM. Under “48 h”, the activation at 0.307 µM was -11.8%, the activation at 1.53 µM was -22%, the activation at 7.66 µM is 4.46% and the activation at 38.3 µM came to 220%. In addition, the Emax under setting [1] worked out at 222%. For the same compound, the Emax (read-out: Max Response [%]) worked out at 220%.

For `O=C(Cn1cccc1C(=O)c1ccccc1)NCCCc1ccccc1` [Compound 43], the EC50 is 3.98 µM. Further, where the note is “48 h”, the activation at 0.307 µM amounted to 13.7%, the activation at 1.53 µM worked out at 43.9%, the activation at 7.66 µM stood at 94.3% and the activation at 38.3 µM was found to be 131%. Also, the Emax under setting [1] amounted to 148%.

For the compound `C=CCN(CC=C)C(=O)c1ccc(OC2CCN(S(=O)(=O)N(C)C)CC2)cc1` [Compound 64], the EC50 was 5.01 µM. Further, where the note is “48 h”, the activation at 0.307 µM is -6.4%, the activation at 1.53 µM stood at 3.46%, the activation at 7.66 µM came to 95.1% and the activation at 38.3 µM came to 129%. Besides, the Emax under setting [1] worked out at 130%. Besides, the Emax (read-out: Max Response [%]) turned out to be 129%.

Consider `C/C(CC(=O)Nc1ccc(Cl)c(C(F)(F)F)c1)=N\NC(=O)c1cnccn1` [Compound 38], for which the EC50 is 4.47 µM. Also, for the setting “48 h”, the activation at 0.307 µM is -0.625%, the activation at 1.53 µM is -2.88%, the activation at 7.66 µM worked out at 69.2% and the activation at 38.3 µM was 72.7%. In addition, under setting [1], the Emax was found to be 73.5%.

For the compound `COc1ccccc1CNS(=O)(=O)c1ccc(Cl)s1` [Compound 103], the EC50 was 6.31 µM. Also, where the note is “48 h”, the activation at 0.307 µM was -22%, the activation at 1.53 µM is -16.4%, the activation at 7.66 µM came to 50.2% and the activation at 38.3 µM is 91.3%. The Emax under setting [1] stood at 96.9%. Further, where the note is “read-out: Max Response [%]”, the Emax is 91.3%.

For the compound `NC(=O)c1nsc(C(=O)N(c2ccccc2)C(C(=O)NCc2ccc(F)cc2)c2ccc(O)cc2)c1N` (stereo not drawn) [Compound 16], the EC50 was 2.24 µM. For the setting “48 h”, the activation at 0.307 µM is -30.2%, the activation at 1.53 µM was determined as 5.64%, the activation at 7.66 µM was 58.2% and the activation at 38.3 µM came to 75.2%. Besides, the Emax under setting [1] was 77.5%.

With `Cc1ccc(C2Nc3cccc4cccc(c34)N2)s1` [Compound 24], the EC50 is 3.16 µM. For the same compound, under “48 h”, the activation at 0.307 µM came out at 5.89%, the activation at 1.53 µM was determined as 19.6%, the activation at 7.66 µM is 73.1% and the activation at 38.3 µM was 81.3%. Besides, the Emax under setting [1] amounted to 82.7%.
